# Patent publication US8461329B2, “Isoquinoline derivative” (Taisho Pharmaceutical Co., Ltd., priority 2008, dated 2013)
# pIC50: −log10 of the molar value. Where a name gives a salt, the structure may show the parent alone.
# Target: T1, CRTH2 (KB8 cells) (Homo sapiens, UniProt Q9Y5Y4)
# T1 construct: host or cells: KB8 cells (human CRTH2 expression cell)
# T1 sequence (Q9Y5Y4 1-395): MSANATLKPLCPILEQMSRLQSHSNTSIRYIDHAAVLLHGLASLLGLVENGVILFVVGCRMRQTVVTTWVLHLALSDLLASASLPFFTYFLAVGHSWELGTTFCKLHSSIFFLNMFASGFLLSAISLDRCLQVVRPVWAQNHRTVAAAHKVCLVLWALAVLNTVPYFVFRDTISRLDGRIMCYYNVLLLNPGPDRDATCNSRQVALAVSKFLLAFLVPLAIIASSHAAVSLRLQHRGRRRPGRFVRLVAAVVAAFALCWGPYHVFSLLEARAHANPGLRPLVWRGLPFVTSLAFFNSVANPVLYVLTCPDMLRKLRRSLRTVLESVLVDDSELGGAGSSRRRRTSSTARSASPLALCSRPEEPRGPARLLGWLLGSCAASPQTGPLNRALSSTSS
# Assay: CRTH2 antagonist test (PGD2-induced intracellular calcium ion concentration increase in KB8 cells)
# Format: cell-based
# Conditions: PGD2 100 nM, Fluo-4 calcium fluorescence, read-out: CRTH2 antagonist activity IC50 value
# Description: The antagonist activity of the compound of the present invention was considered by using the intracellular calcium ion concentration increase reaction induced when the prostaglandin D2 was added to KB8 cells.
# Fluo-4-AM (4-(6-acetoxymethoxy-2,7-difluoro-3-oxo-9-xanthenyl)-4′-methyl-2,2′-(ethylenedioxy)dianilide-N,N,N′,N′-tetraacetic acid tetrakis(acetoxymethyl) ester (SIGMA, final concentration: 1 μM) was added to KB8 cells, and the cells were incubated at 37° C. for 30 min, washed with phosphate buffer (Invitrogen), and then suspended in Hank's balanced salt solution (Invitrogen)) containing a reaction buffer solution (10 mM HEPES (Invitrogen), and 1 mM calcium chloride (SIGMA). The suspension was dispensed in a 96 well plate (Nunc) so that 2×10^5 cells/well were placed, and the compound of the present invention and PGD2 (final concentration: 100 nM) were added. The fluorescence intensity thereof was measured over time by using FDSS6000 (Hamamatsu Photonics), and thus the maximum fluorescence intensity value “d” was obtained. The same procedure was carried out in the absence of the compound, and the maximum fluorescence intensity value “e” was obtained; and the same procedure was carried out in the absence of the compound and […], and the maximum fluorescence intensity value “f” was obtained.
# The calcium ion concentration increase inhibition rate of a compound was calculated by the following calculation formula: Inhibitory rate(%)=[1−(d−f)/(e−f)]×100
# That is to say, by using calcium ion concentration increase inhibitory rates of compounds to be tested having various concentrations, the IC50 value was calculated according to a dose-dependent inhibition curve analyzed by using XLfit (IDBS) as a data analysis software, and the value was defined as an indicator of the antagonist activity. In Tables, A denotes an inhibitory activity showing the IC50 value of less than 50 nM; B denotes an inhibitory activity showing the IC50 value of 50 nM or greater and less than 500 nM; C denotes an inhibitory activity showing the IC50 value of 500 nM or greater and less than 1000 nM; and D denotes an inhibitory activity showing the IC50 value of 1000 nM or greater.
row,Structure (SMILES),pIC50
1,O=C(O)Cc1cnc(Cc2ccc(C(=O)NCCc3ccc(C(F)(F)F)cc3)cc2)c2ccccc12 [Example 201],7.70

# Same assay, conditions: PGD2 final concentration 100 nM, Fluo-4-AM fluorescence, read-out: antagonist activity (IC50 value, inhibition of calcium ion concentration increase)
row,Structure (SMILES),pIC50
1,Cc1c(F)c(F)c(C(=O)Nc2ccc(C(=O)c3ncc(CC(=O)O)c4ccccc34)cc2)c(F)c1F [Example 125],6.00 to 6.30
2,O=C(O)Cc1cnc(C(=O)c2ccc(NC(=O)Cc3c[nH]c4ccccc34)cc2)c2ccccc12 [Example 126],> 7.30
3,O=C(O)Cc1cnc(C(=O)c2ccc(C(=O)Nc3ccc(Cl)cc3)cc2)c2ccccc12 [Example 140],> 7.30
4,O=C(O)Cc1cnc(C(=O)c2ccc(Oc3ccccc3)cc2)c2ccccc12 [Example 145],≤ 6.00
5,"O=C(O)Cc1cnc(C(=O)c2ccc(COCCc3ccc(Cl)cc3)cc2)c2ccccc12 [Example 146, {1-[(4-{[2-(4-chlorophenyl)ethoxy]methyl}phenyl)carbonyl]isoquinolin-4-yl}acetic acid]",6.30 to 7.30
6,"O=C(O)Cc1cnc(C(=O)c2ccc(CNCc3ccc(Cl)cc3)cc2)c2ccccc12 [Example 147, {1-[(4-{[(4-chlorobenzyl)amino]methyl}phenyl)carbonyl]isoquinolin-4-yl}acetic acid hydrochloride]",≤ 6.00
7,"O=C(O)Cc1cnc(Cc2ccc(OCCc3ccc(Cl)cc3)cc2)c2ccccc12 [Example 149, (1-{4-[2-(4-chlorophenyl)ethoxy]benzyl}isoquinolin-4-yl)acetic acid]",6.00 to 6.30
8,O=C(O)Cc1cnc(Cc2ccc(OCCCc3ccc(Cl)cc3)cc2)c2ccccc12 [Example 150],6.30 to 7.30
9,O=C(O)Cc1cnc(Cc2ccc(OCCOc3ccc(Cl)cc3)cc2)c2ccccc12 [Example 151],6.30 to 7.30
10,"O=C(O)Cc1cnc(Cc2ccc(S(=O)(=O)NCCc3ccc(Cl)cc3)cc2)c2ccccc12 [Example 152, [1-(4-{[2-(4-chlorophenyl)ethyl]sulfamoyl}benzyl)isoquinolin-4-yl]acetic acid]",6.30 to 7.30
11,O=C(O)Cc1cnc(Cc2ccc(C(=O)NCc3ccc(Cl)cc3)cc2)c2ccccc12 [Example 154],6.30 to 7.30
12,O=C(O)Cc1cnc(Cc2ccc(C(=O)NCCc3cccc(Cl)c3)cc2)c2ccccc12 [Example 155],> 7.30
13,COc1ccc(CCNC(=O)c2ccc(Cc3ncc(CC(=O)O)c4ccccc34)cc2)cc1 [Example 156],6.30 to 7.30
14,COc1ccc(CCNC(=O)c2ccc(Cc3ncc(CC(=O)O)c4ccccc34)cc2)cc1Cl [Example 157],> 7.30
15,O=C(O)Cc1cnc(Cc2ccc(C(=O)Nc3ccc(Cl)c(Cl)c3)cc2)c2ccccc12 [Example 158],> 7.30
16,O=C(O)Cc1cnc(Cc2ccc(C(=O)Nc3ccc(Cl)cc3)cc2)c2ccccc12 [Example 159],> 7.30
17,O=C(O)Cc1cnc(Cc2ccc(C(=O)NCCc3ccc(Cl)c(Cl)c3)cc2)c2ccccc12 [Example 160],> 7.30
18,"O=C(O)Cc1cnc(Cc2ccc(C(=O)NCCc3ccccc3)cc2)c2ccccc12 [Example 161, (1-{4-[(2-phenylethyl)carbamoyl]benzyl}isoquinolin-4-yl)acetic acid]",6.30 to 7.30
19,O=C(O)Cc1cnc(Cc2ccc(C(=O)NCCc3ccccc3Cl)cc2)c2ccccc12 [Example 162],> 7.30
20,O=C(O)Cc1cnc(Cc2ccc(C(=O)NCCCc3ccc(Cl)cc3)cc2)c2ccccc12 [Example 164],> 7.30

row,Structure (SMILES),pIC50
1,Cc1ccc(CCNC(=O)c2ccc(Cc3ncc(CC(=O)O)c4ccccc34)cc2)cc1 [Example 165],> 7.30
2,Cc1cccc(CCNC(=O)c2ccc(Cc3ncc(CC(=O)O)c4ccccc34)cc2)c1 [Example 166],> 7.30
3,Cc1ccccc1CCNC(=O)c1ccc(Cc2ncc(CC(=O)O)c3ccccc23)cc1 [Example 167],> 7.30
4,Cc1ccc(CCNC(=O)c2ccc(Cc3ncc(CC(=O)O)c4ccccc34)cc2)cc1C [Example 168],6.30 to 7.30
5,Cc1ccc(C)c(CCNC(=O)c2ccc(Cc3ncc(CC(=O)O)c4ccccc34)cc2)c1 [Example 169],6.30 to 7.30
6,COc1ccc(CCNC(=O)c2ccc(Cc3ncc(CC(=O)O)c4ccccc34)cc2)cc1Cl [Example 170],6.30 to 7.30
7,COc1ccc(CCNC(=O)c2ccc(Cc3ncc(CC(=O)O)c4ccccc34)cc2)cc1C [Example 171],6.30 to 7.30
8,O=C(O)Cc1cnc(Cc2ccc(C(=O)NCCc3cccc(Br)c3)cc2)c2ccccc12 [Example 172],6.30 to 7.30
9,O=C(O)Cc1cnc(Cc2ccc(C(=O)NCCc3ccc(C(=O)O)cc3)cc2)c2ccccc12 [Example 173],≤ 6.00
10,O=C(O)Cc1cnc(Cc2ccc(C(=O)NCCc3ccc([N+](=O)[O-])cc3)cc2)c2ccccc12 [Example 174],6.30 to 7.30
11,O=C(O)Cc1cnc(Cc2ccc(C(=O)NCCc3ccccn3)cc2)c2ccccc12 [Example 175],≤ 6.00
12,O=C(O)Cc1cnc(Cc2ccc(C(=O)NCCc3cccnc3)cc2)c2ccccc12 [Example 176],≤ 6.00
13,O=C(O)Cc1cnc(Cc2ccc(C(=O)NCCc3ccncc3)cc2)c2ccccc12 [Example 177],≤ 6.00
14,O=C(O)Cc1cnc(Cc2ccc(C(=O)NCCOc3ccc(Cl)cc3)cc2)c2ccccc12 [Example 178],6.30 to 7.30
15,O=C(O)Cc1cnc(Cc2ccc(C(=O)NCCc3c[nH]c4ccccc34)cc2)c2ccccc12 [Example 179],> 7.30
16,O=C(O)Cc1cnc(Cc2ccc(C(=O)NCCc3ccc(Cl)cc3Cl)cc2)c2ccccc12 [Example 180],> 7.30
17,O=C(O)Cc1cnc(Cc2ccc(C(=O)NCCc3ccccc3F)cc2)c2ccccc12 [Example 181],6.30 to 7.30
18,O=C(O)Cc1cnc(Cc2ccc(C(=O)NCCc3cccc(F)c3)cc2)c2ccccc12 [Example 182],6.30 to 7.30
19,O=C(O)Cc1cnc(Cc2ccc(C(=O)NCCc3ccccc3Br)cc2)c2ccccc12 [Example 183],> 7.30
20,COc1ccccc1CCNC(=O)c1ccc(Cc2ncc(CC(=O)O)c3ccccc23)cc1 [Example 184],6.30 to 7.30

row,Structure (SMILES),pIC50
1,O=C(O)Cc1cnc(Cc2ccc(C(=O)NCCN3CCOCC3)cc2)c2ccccc12 [Example 185],≤ 6.00
2,CCCCNC(=O)c1ccc(Cc2ncc(CC(=O)O)c3ccccc23)cc1 [Example 186],6.00 to 6.30
3,O=C(O)Cc1cnc(Cc2ccc(C(=O)NCCC3CCCCC3)cc2)c2ccccc12 [Example 187],> 7.30
4,O=C(O)Cc1cnc(Cc2ccc(C(=O)NCCC3=CCCCC3)cc2)c2ccccc12 [Example 188],6.30 to 7.30
5,COc1ccc(CCNC(=O)c2ccc(Cc3ncc(CC(=O)O)c4ccccc34)cc2)cc1OC [Example 189],≤ 6.00
6,O=C(O)Cc1cnc(Cc2ccc(C(=O)NCCc3c(F)cccc3Cl)cc2)c2ccccc12 [Example 190],6.30 to 7.30
7,O=C(O)Cc1cnc(Cc2ccc(C(=O)NCCc3c(Cl)cccc3Cl)cc2)c2ccccc12 [Example 191],6.30 to 7.30
8,Cc1c(C)c(C)c(CCNC(=O)c2ccc(Cc3ncc(CC(=O)O)c4ccccc34)cc2)c(C)c1C [Example 192],> 7.30
9,CC(C)(C)c1ccc(CCNC(=O)c2ccc(Cc3ncc(CC(=O)O)c4ccccc34)cc2)cc1 [Example 193],> 7.30
10,O=C(O)Cc1cnc(Cc2ccc(C(=O)NCCc3ccc(-c4ccccc4)cc3)cc2)c2ccccc12 [Example 194],> 7.30
11,O=C(O)Cc1cnc(Cc2ccc(C(=O)NCCc3ccc(Oc4ccccc4)cc3)cc2)c2ccccc12 [Example 195],> 7.30
12,O=C(O)Cc1cnc(Cc2ccc(C(=O)NCCc3ccc(O)cc3)cc2)c2ccccc12 [Example 196],6.00 to 6.30
13,COc1cccc(CCNC(=O)c2ccc(Cc3ncc(CC(=O)O)c4ccccc34)cc2)c1 [Example 197],6.30 to 7.30
14,O=C(O)Cc1cnc(Cc2ccc(C(=O)NCCc3ccc(Br)cc3)cc2)c2ccccc12 [Example 199],> 7.30
15,O=C(O)Cc1cnc(Cc2ccc(C(=O)NCCc3ccc(F)cc3)cc2)c2ccccc12 [Example 200],6.30 to 7.30
16,O=C(O)Cc1cnc(Cc2ccc(C(=O)NCCc3ccc(C(F)(F)F)cc3)cc2)c2ccccc12 [Example 201],> 7.30
17,O=C(O)Cc1cnc(Cc2ccc(C(=O)NCCc3ccc4ccccc4n3)cc2)c2ccccc12 [Example 202],6.30 to 7.30
18,O=C(O)Cc1cnc(Cc2ccc(C(=O)NCCc3ccc(OC(F)(F)F)cc3)cc2)c2ccccc12 [Example 203],> 7.30
